Measured values reported in US12102689B2, “Anti-CD22 antibody-maytansine conjugates and methods of use thereof” (R.P. Scherer Technologies, LLC, priority 2015, dated 2024).

Key:
Type in all cases: cell-based
WSU-DLCL2 cells = assay: In vitro cytotoxicity (Cell Titer-Glo, 5 d); details: Homo sapiens, WSUDLCL2, 120 h
Description: (§1) The CD22-positive B-cell lymphoma cell lines, Ramos and WSU-DLCL2, were obtained from the ATCC and DSMZ cell banks, respectively. The cells were maintained in RPMI-1640 medium (Cellgro, Manassas, VA) supplemented with 10% fetal bovine serum (Invitrogen, Grand Island, NY) and Glutamax (Invitrogen). 24 h prior to plating, cells were passaged to ensure log-phase growth. On the day of plating, 5000 cells/well were seeded onto 96-well plates in 90 μL normal growth medium supplemented with 10 IU penicillin and 10 μg/mL streptomycin (Cellgro). Cells were treated at various concentrations with 10 μL of diluted analytes, and the plates were incubated at 37° C. in an atmosphere of 5% CO2. After 5 d, 100 μL/well of Cell Titer-Glo reagent (Promega, Madison, WI) was added, and luminescence was measured using a Molecular Devices SpectraMax M5 plate reader. GraphPad Prism software was used for data analysis.

Ramos cells = assay: In vitro cytotoxicity (Cell Titer-Glo, 5 d); details: Homo sapiens, 120 h
Description: as §1

MDR1+ Ramos cells = assay: In vitro cytotoxicity assay on MDR1-expressing cells; details: MDR1+ Ramos vs wild-type
Description: (§2) MDR1 (ABCB1) cDNA was obtained from Sino Biological and cloned into a pEF plasmid with a hygromycin selection marker. An AMAXA Nucleofector™ instrument was used to electroporate Ramos (ATCC CRL-1923) and WSU-DLCL2 (DSMZ ACC 575) cells according to the manufacturer's instructions. After selection with hygromycin (Invitrogen 10687010), the pools were enriched with paclitaxel treatment (25 nM for up to 10 days) to further select cells with functional MDR1. The resulting cells were maintained under hygromycin selection in RPMI (Gibco 21870-092) supplemented with 10% fetal bovine serum (FBS) and 1× GlutaMax (Gibco 35050-079).
(§3) Cell lines were plated in 96-well plates (Costar 3610) at a density of 5×10^4 cells/well in 100 μL of growth media and allowed to rest for 5 h. Serial dilution of test samples was performed in RPMI at 6× the final concentration and 20 μL was added to the cells. After incubation at 37° C. with 5% CO2 for 5 days, viability was measured using a Promega CellTiter 96® AQueous One Solution Cell Proliferation Assay (G3581) according to the manufacturer's instructions. GI50 curves were calculated in GraphPad Prism using the ADC's drug-to-antibody ratio (DAR) value to normalize the dose to the payload concentration.

MDR1+ WSU-DLCL2 cells = assay: as above
Description: as §2, §3

Q: For `COc1cc2cc(c1Cl)N(C)C(=O)C[C@H](OC(=O)[C@H](C)N(C)C(C)=O)[C@]1(C)O[C@H]1[C@H](C)[C@@H]1C[C@@](O)(NC(=O)O1)[C@H](OC)/C=C/C=C(\C)C2` [free maytansine, maytansine], which IC50 (WSU-DLCL2 cells) is on record?
A: 0.086 nM

Q: What about the IC50 (Ramos cells) of the same compound?
A: 0.04 nM

Q: What about the “fold less efficacious in MDR1-expressing cells” value (MDR1+ Ramos cells) of the same compound?
A: ~10 fold

Q: And the “potency on cotreatment with cyclosporin (MDR1 inhibitor)” value (MDR1+ WSU-DLCL2 cells; MDR1+ WSU-DLCL2 cells plus cyclosporin)?
A: restored the original potency

Q: And the “fold less efficacious in MDR1-expressing cells” value (MDR1+ WSU-DLCL2 cells; MDR1+ WSU-DLCL2 vs wild-type)?
A: ~10 fold
